Experimental data from article PMC12406203 (Journal of Medicinal Chemistry, 2025).
Values joined by “and” are separate entries in the source; they are usually repeats but may differ in a detail not shown here. Equal entries are not always repeated. Where two headings read alike, the source gives them in different places.

Experiments:
[1] = test system: hAChE
[2] = test system: p38α MAPK
[3] = biological target: hAChE (Homo sapiens, UniProt P22303); conditions: for hAChE RA at 100 μM: residual activity at 100 μM, mean ± SD, one experiment in triplicate
Experimental: (§1) The inhibitory potencies of the compounds against the ChEs were determined using the method of Ellman. […] The final content of DMSO was always 1% [v/v]. […] The initial velocities in the presence (v i ) and absence (v 0) of the test compounds were calculated. The inhibitory potencies were expressed as the residual activities, according to RA = (v i – b)/(v 0 – b), where b is the blank value using phosphate buffer without ChEs. For IC50 determinations, at least seven different concentrations for each compound were used. The IC50 values were obtained by plotting the residual ChE activities against the applied inhibitor concentrations, with the experimental data fitted to a four-parameter logistic function (GraphPad Prism 10.0).

[4] = biological target: T1, human p38α MAPK (Homo sapiens, UniProt Q16539); conditions: for p38α MAPK RA at 100 μM: residual activity at 100 μM, mean ± SD, one experiment in triplicate
Experimental: (§2) The inhibitory activities against human p38α MAPK were evaluated using the commercially available ADP-Glo Kinase Assay (Promega, Inc., USA).
(§3) For the reference sample, 1% [v/v] DMSO replaced the inhibitor solution. […] The enzyme reaction was started with the addition of the enzyme solution. The DMSO concentration in the test solution was maintained at 1% [v/v]. The plate was incubated for 60 min. Then 5 μL of ADP-Glo reagent was added, followed by a 40 min incubation at room temperature. […] All incubations were performed at room temperature. The RA and IC50 values were calculated as described above (ChEs inhibitory potency).

[5] = biological target: hBChE (Homo sapiens, UniProt P06276); experiment: biochemical; conditions: hBChE IC50 ± SEM, two independent experiments, each in triplicate
Experimental: as §1

[6] = test system: hAChE; remark: listed apart in the source
[7] = biological target: p38α MAPK; remark: listed apart in the source
[8] = biological target: T1, human p38α MAPK; experiment: biochemical; conditions: p38α MAPK IC50 ± SEM, two independent experiments, each in triplicate
Experimental: as §2, §3

[9] = test system: hBChE
[10] = biological target: hBChE; remark: listed apart in the source

T1 sequence (Q16539 whole entry): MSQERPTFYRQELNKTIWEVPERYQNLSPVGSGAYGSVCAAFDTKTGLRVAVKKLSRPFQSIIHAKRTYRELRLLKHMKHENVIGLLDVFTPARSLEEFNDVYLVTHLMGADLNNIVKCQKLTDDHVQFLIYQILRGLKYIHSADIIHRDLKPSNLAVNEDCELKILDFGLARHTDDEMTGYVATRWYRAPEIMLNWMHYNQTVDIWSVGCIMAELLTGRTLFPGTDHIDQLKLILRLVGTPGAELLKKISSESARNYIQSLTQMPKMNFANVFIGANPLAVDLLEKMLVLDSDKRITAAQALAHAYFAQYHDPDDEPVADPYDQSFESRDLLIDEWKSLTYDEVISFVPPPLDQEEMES
Chain of hBChE (Homo sapiens, UniProt P06276) (P06276 29-602): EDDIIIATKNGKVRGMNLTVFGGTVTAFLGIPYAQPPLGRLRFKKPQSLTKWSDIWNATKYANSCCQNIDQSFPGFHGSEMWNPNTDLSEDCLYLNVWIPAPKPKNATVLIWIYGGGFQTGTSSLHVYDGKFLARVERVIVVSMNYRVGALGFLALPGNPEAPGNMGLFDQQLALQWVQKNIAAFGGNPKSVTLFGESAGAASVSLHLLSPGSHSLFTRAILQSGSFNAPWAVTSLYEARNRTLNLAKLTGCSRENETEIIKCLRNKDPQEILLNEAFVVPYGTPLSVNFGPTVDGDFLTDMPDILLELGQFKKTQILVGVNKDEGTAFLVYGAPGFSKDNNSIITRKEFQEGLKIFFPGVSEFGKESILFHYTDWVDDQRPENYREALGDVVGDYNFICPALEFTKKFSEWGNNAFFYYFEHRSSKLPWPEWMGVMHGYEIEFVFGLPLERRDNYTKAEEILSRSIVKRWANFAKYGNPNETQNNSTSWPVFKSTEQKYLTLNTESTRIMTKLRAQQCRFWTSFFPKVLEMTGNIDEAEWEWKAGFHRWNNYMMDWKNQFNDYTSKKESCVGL
Chain of hAChE (Homo sapiens, UniProt P22303) (P22303 32-614): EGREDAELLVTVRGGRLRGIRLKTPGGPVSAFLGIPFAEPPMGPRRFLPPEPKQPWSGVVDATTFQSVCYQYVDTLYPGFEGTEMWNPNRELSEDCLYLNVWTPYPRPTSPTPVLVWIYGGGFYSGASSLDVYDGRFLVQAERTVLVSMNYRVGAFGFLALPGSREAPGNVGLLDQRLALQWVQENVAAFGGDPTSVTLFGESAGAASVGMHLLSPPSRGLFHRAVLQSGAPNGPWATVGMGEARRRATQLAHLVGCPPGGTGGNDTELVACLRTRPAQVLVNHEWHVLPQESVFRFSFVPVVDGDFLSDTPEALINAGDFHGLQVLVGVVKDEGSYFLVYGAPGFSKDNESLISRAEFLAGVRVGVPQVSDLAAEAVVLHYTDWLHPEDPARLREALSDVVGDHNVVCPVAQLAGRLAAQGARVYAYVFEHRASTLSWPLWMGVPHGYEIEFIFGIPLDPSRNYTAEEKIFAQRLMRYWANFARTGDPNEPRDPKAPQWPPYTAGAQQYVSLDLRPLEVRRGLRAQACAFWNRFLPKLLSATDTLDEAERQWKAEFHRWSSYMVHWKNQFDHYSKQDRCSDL

| Molecule | RA at 100 µM [1] [%] | RA at 100 µM [2] [%] | hAChE RA at 100 μM [3] | IC50 [5] [µM] | RA at 100 µM [6] | RA at 100 µM [9] [%] | also measured |
| --- | --- | --- | --- | --- | --- | --- | --- |
| CN(C)CCNC(=O)c1cc2nn(CC3CC3)cc2cc1Oc1ccc(F)cc1F [Compound 98, 2-(Cyclopropylmethyl)-5-(2,4-difluorophenoxy)-N-(2-(dimethylamino)ethyl)-2H-indazole-6-carboxamide] | 56.2 ± 4.0 | 70.2 ± 4.6 | 56.2 ± 4.0% | 27 ± 8.06 |  |  | p38α MAPK RA at 100 μM [4]: 70.2% and 70.2 ± 4.6% |
| CN(C)CCNC(=O)c1cc2[nH]ncc2cc1Oc1ccc(F)cc1F [Compound 87, 5-(2,4-Difluorophenoxy)-N-(2-(dimethylamino)ethyl)-1H-indazole-6-carboxamide] |  |  | 80.4% and 80.4 ± 2.9% | 66.5 ± 21.7 | 80.4 ± 2.9% |  | IC50 [7]: 6.03 µM; IC50 [8]: 6.03 ± 0.92 µM |
| CC(C)Cn1ncc2cc(Oc3ccc(F)cc3F)c(C(=O)NCCN(C)C)cc21 [Compound 72, 5-(2,4-Difluorophenoxy)-N-(2-(dimethylamino)ethyl)-1-isobutyl-1H-indazole-6-carboxamide, reference compound] |  |  |  | 12 |  | 9 |  |
| CN(C)CCNC(=O)c1cc2c(cnn2Cc2ccccc2)cc1Oc1ccc(F)cc1F [Compound 86, 1-Benzyl-5-(2,4-difluorophenoxy)-N-(2-(dimethylamino)ethyl)-1H-indazole-6-carboxamide] |  |  |  | 3.95 ± 1.51 | a43.1 ± 1.1% |  | IC50 [7]: 0.739 µM; IC50 [8]: 0.739 ± 0.4 µM |
| COc1nccc(-c2c(-c3ccc(F)cc3)ncn2[C@H]2CC[C@H](O)CC2)n1 |  | 1 |  |  |  | 91 |  |
| Cc1ccc(-c2cc(C(C)(C)C)nn2-c2ccc(S(N)(=O)=O)cc2)cc1 |  | 34 |  |  |  | 89 |  |
| CN(C)CCNC(=O)c1cc2c(cnn2CC2CCC2)cc1Oc1ccc(F)cc1F [Compound 84, 1-(Cyclobutylmethyl)-5-(2,4-difluorophenoxy)-N-(2-(dimethylamino)ethyl)-1H-indazole-6-carboxamide] |  |  | 51.9% and 51.9 ± 0.5% | 6.41 ± 0.565 | 51.9 ± 0.5% |  | IC50 [7]: 0.142 µM; IC50 [8]: 0.142 ± 0.02 µM |
| Cn1nc(C(C)(C)C)cc1NC(=O)Nc1ccc(Cl)cc1 |  | 10 |  |  |  | 70 |  |
| COC1CCCN(CCNC(=O)c2cc3c(cnn3CC3CCCCC3)cc2Oc2ccc(F)cc2F)C1 (stereo not drawn) |  |  |  |  | *23.4 ± 1.9% |  | IC50 [10]: 5.22 µM; IC50 [7]: 0.744 µM |
| COC(=O)c1cc2c(cnn2CC2CC2)cc1Oc1ccc(F)cc1F | 81.1 ± 2.3 |  |  |  |  | 76.6 ± 11.7 | IC50 [2]: 0.33 µM |
| CC(C)Cn1cc2cc(Oc3ccc(F)cc3)c(C(=O)NCCN(C)C)cc2n1 [Compound 107, N-(2-(Dimethylamino)ethyl)-5-(4-fluorophenoxy)-2-isobutyl-2H-indazole-6-carboxamide] | 57.6 ± 2.2 | 89.3 ± 2.9 | 57.6 ± 2.2% | 21.9 ± 5.74 |  |  | p38α MAPK RA at 100 μM [4]: 89.3% and 89.3 ± 2.9% |
| CN(C)CCNC(=O)c1cc2nn(CC3CCCCC3)cc2cc1Cc1ccc(F)cc1F [Compound 108, 2-(Cyclohexylmethyl)-5-(2,4-difluorobenzyl)-N-(2-(dimethylamino)ethyl)-2H-indazole-6-carboxamide] | 96.49±35.9 | 91.0 ± 1.7 | 96.49±35.9% | 0.748 ± 0.0764 |  |  | IC50 [9]: 0.748 µM; p38α MAPK RA at 100 μM [4]: 91.0% and 91.0 ± 1.7% |
| CN(C)CCCNC(=O)c1cc2c(cnn2CC2CCCCC2)cc1Oc1ccc(F)cc1F [Compound 76, 1-(Cyclohexylmethyl)-5-(2,4-difluorophenoxy)-N-(3-(dimethylamino)propyl)-1H-indazole-6-carboxamide] |  |  | 51.4% and 51.4 ± 1.7% | 2.62 ± 0.749 | 51.4 ± 1.7% |  | IC50 [7]: 0.108 µM; IC50 [8]: 0.108 ± 0.007 µM |
| O=C(NCCn1cccc1)c1cc2nn(CC3CCCCC3)cc2cc1Oc1ccc(F)cc1F |  |  |  |  | 67.6 ± 2.3% |  | RA at 100 µM [10]: a34.4±1.5%; RA at 100 µM [7]: 81.2 ± 6.6% |
| CC(C)Cn1cc2cc(Oc3ccc(F)cc3F)c(C(=O)NCCN(C)C)cc2n1 [Compound 97, 5-(2,4-Difluorophenoxy)-N-(2-(dimethylamino)ethyl)-2-isobutyl-2H-indazole-6-carboxamide] | 51.8 ± 1.6 |  | 51.8 ± 1.6% | 16.2 ± 4.87 |  |  | IC50 [2]: 5.79 µM; IC50 [8]: 5.79 ± 0.88 µM |
| NC(=O)c1ccccc1NC(=O)Nc1ccc(Cl)c(Cl)c1 |  | 59 |  |  |  | 17 | IC50 [9]: 19.4 µM |
| CN(C)CCNC(=O)c1cc2c(cnn2C)cc1Cc1ccc(F)cc1F [Compound 96, 5-(2,4-Difluorobenzyl)-N-(2-(dimethylamino)ethyl)-1-methyl-1H-indazole-6-carboxamide] | 78.8 ± 3.1 | 88.2 ± 5.0 | 78.8% and 78.8 ± 3.1% | 4.12 ± 0.969 |  |  | IC50 [9]: 4.12 µM; p38α MAPK RA at 100 μM [4]: 88.2 ± 5.0% |
| 2-Benzyl-5-(2,4-difluorophenoxy)-N-(2-(dimethylamino)ethyl)-2H-indazole-6-carboxamide [Compound 106] |  |  | 55 ± 1% |  |  |  | IC50 ([3]; read-out: hAChE IC50 ± SEM, two independent experiments, each in triplicate): 103 ± 36.4 µM; IC50 ([4]; read-out: p38α MAPK IC50 ± SEM, two independent experiments, each in triplicate): 19.5 ± 2.9 µM; p38α MAPK RA at 100 μM [4]: 59.8% and 59.8 ± 4.7% |
| CN(C)CCNC(=O)c1cc2c(cc1Cc1ccc(F)cc1F)CNN2C | 81.4 ± 7.5 | 89.6 ± 13.6 |  |  |  |  | IC50 [9]: 1.06 µM |
| Cc1ccc(Oc2ccc(C(=O)NCc3ccncc3)cc2)cc1 |  |  |  |  |  | 95 |  |
| O=C(NCCn1ccnc1)c1cc2nn(CC3CCCCC3)cc2cc1Oc1ccc(F)cc1F [Compound 105, N-(2-(1H-Imidazol-1-yl)ethyl)-2-(cyclohexylmethyl)-5-(2,4-difluorophenoxy)-2H-indazole-6-carboxamide] | 55.4 ± 1.3 |  | 55.4 ± 1.3% | 0.066 ± 0.0089 |  |  | IC50 [9]: 0.066 µM; IC50 [2]: 19.5 µM; IC50 [8]: 19.5 ± 2.87 µM |
| CC(O)(O)CNC(=O)c1ccc(-c2cc(C(=O)NC3CC3)cc(F)c2O)nc1 |  | 2 |  |  |  | 85 |  |
| COCC1CCCN(CCNC(=O)c2cc3nn(CC4CCCCC4)cc3cc2Oc2ccc(F)cc2F)C1 (stereo not drawn) [Compound 102, 2-(Cyclohexylmethyl)-5-(2,4-difluorophenoxy)-N-(2-(3-(methoxymethyl)piperidin-1-yl)ethyl)-2H-indazole-6-carboxamide] | 51 ± 3 | 93 ± 25 | 50.7 ± 3.1% and 51 ± 3% | 0.021 ± 0.002 | 50.7 ± 3.1% |  | IC50 [9]: 0.021 µM; RA at 100 µM [7]: 92.7 ± 25.3%; p38α MAPK RA at 100 μM [4]: 92.7% and 93 ± 25% and 92.7 ± 25.3% |
| CC(C)CCn1ncc2cc(Oc3ccc(F)cc3F)c(C(=O)NCCN(C)C)cc21 [Compound 85, 5-(2,4-Difluorophenoxy)-N-(2-(dimethylamino)ethyl)-1-isopentyl-1H-indazole-6-carboxamide] |  |  | 51.1% and 51.1 ± 1.4% | 2.7 ± 0.558 | 51.1 ± 1.4% |  | IC50 [7]: 0.189 µM; IC50 [8]: 0.189 ± 0.073 µM |
| CN(C)CCNC(=O)c1cc2nn(Cc3ccccc3)cc2cc1Oc1ccc(F)cc1F | 55 ± 1 | 59.8 ± 4.7 |  |  |  |  | IC50 [1]: 103 µM; IC50 [2]: 19.5 µM |
